Reference: publication PMC4191963, “DNA Binding Properties of the Actin-Related Protein Arp8 and Its Role in DNA Repair” (PLoS ONE, 2014)

How the values were obtained:
human Arp8 [1] = biological target: T1, human Arp8 (Homo sapiens, UniProt Q9H981, E266A); experiment: agarose gel shift, loss of dsDNA binding; conditions: 1 mM ATP, 1 mM MgCl2, pH 7.5, 37 °C, phiX174 circular dsDNA; ATP-binding pocket
T1 construct: gene ACTR8; full length, N-terminal His6 tag removed with PreScission protease, expressed in E. coli

human Arp8 [2] = biological target: T2, human Arp8 (Homo sapiens, UniProt Q9H981); experiment: agarose gel shift, loss of dsDNA binding; conditions: 1 mM MgCl2, pH 7.5, 37 °C, phiX174 dsDNA
T2 construct: gene ACTR8; full length, N-terminal His6 tag removed with PreScission protease, expressed in E. coli

Arp8 = Arp8 (Homo sapiens, UniProt Q9H981 1-624); experiment: competition EMSA (PAGE); 3 µM each of ssDNA, dsDNA, 3'-overhang; 250 mM NaCl; highest apparent affinity; 20 mM HEPES-NaOH pH 7.5, 160 mM NaCl (250 mM in oligonucleotide competition), 1 mM MgCl2, 1 mM DTT, 0.1 mg/ml BSA, 8% glycerol (not listed for competition), +/- 1 mM ATP or ADP, 37 C 15 min; conditions: protein: recombinant; tags: His6 (N-terminal) removed by PreScission; single-stranded
Chain of Arp8 (Q9H981 whole entry): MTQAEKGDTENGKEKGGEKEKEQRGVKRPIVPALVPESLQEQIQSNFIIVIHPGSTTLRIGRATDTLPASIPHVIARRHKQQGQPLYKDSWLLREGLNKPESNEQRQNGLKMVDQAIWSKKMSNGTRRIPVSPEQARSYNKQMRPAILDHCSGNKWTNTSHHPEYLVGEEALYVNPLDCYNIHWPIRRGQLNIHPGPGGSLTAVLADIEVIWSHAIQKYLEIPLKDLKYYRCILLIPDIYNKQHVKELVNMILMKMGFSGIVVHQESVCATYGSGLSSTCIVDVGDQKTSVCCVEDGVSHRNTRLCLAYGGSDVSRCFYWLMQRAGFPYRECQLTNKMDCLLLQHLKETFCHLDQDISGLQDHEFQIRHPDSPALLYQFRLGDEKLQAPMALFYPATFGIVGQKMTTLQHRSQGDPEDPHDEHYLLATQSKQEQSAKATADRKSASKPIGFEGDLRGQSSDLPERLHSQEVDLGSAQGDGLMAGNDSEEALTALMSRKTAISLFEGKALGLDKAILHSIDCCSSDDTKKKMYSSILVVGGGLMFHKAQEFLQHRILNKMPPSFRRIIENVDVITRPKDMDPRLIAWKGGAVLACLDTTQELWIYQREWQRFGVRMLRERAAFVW

T2 sequence (Q9H981 whole entry): as above
T1 sequence (Q9H981 whole entry E266A): as the sequence (Q9H981 whole entry) above, with E266A counted along it

With Nc1ncnc2c1ncn2[C@@H]1O[C@H](COP(=O)(O)OP(=O)(O)OP(=O)(O)O)[C@@H](O)[C@H]1O [ATP] the “agarose gel shift, loss of dsDNA binding” value (human Arp8 [1]) was “ATP only partially inhibited the DNA binding activity of the Arp8 E266A mutant” and the “agarose gel shift, loss of dsDNA binding” value (human Arp8 [2]; 1 mM ATP, ATP-binding pocket) was “Addition of ATP to the binding assay mixture significantly decreased the binding of Arp8”.

For Nc1ncnc2c1ncn2[C@@H]1O[C@H](COP(=O)(O)OP(=O)(O)O)[C@@H](O)[C@H]1O [ADP], the “agarose gel shift, loss of dsDNA binding” value (human Arp8 [2]; 1 mM ADP) was “addition of ADP only slightly decreased the binding of Arp8 to dsDNAs”.

CCTCGATCCTACCAACCAGATGACGCGCTGCTACGTGCTACCGGAAGTCG (ssDNA) [a3 ssDNA]: binds (Arp8).
